Where “and” joins values, the source holds several entries; their conditions need not be identical. Identical values can stand only once.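 Interpolation was linear, between the two tested concentrations surrounding the appropriate level; five concentrations were tested over 48 hours in 96-well plates. GI50: concentration for 50% inhibition of growth. TGI: total growth inhibition.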
How the values were obtained:
Test in all cases: NCI-60 cell line screen, 48 h
[1] = tested on: PC-3 prostate
[2] = tested on: KM12 colon
[3] = tested on: A498 renal
[4] = tested on: DU-145 prostate
[5] = tested on: MOLT-4 leukemia
[6] = tested on: MDA-MB-435
[7] = tested on: SR leukemia
[8] = tested on: COLO 205 colon
[9] = tested on: MALME-3M melanoma
[10] = tested on: TK-10 renal

Structure (SMILES)	GI50 [1] [µM]	TGI [1] [µM]	GI50 [2] [µM]	TGI [2]	GI50 [3] [µM]	TGI [3] [µM]	GI50 [4] [µM]	TGI [4] [µM]	GI50 [5] [µM]	TGI [5]	GI50 [6] [µM]	TGI [6] [µM]	GI50 [7] [µM]	TGI [7] [µM]	GI50 [8] [µM]	TGI [8]	TGI [9]	TGI [10]	GI50 [9] [µM]	GI50 [10] [µM]
COc1c2ccccc2c(O)c2c(=O)c(C(=O)O)cn(C)c12	> 100	> 100	> 100	> 100 µM	18.8	> 100	> 100	> 100	> 100	> 100 µM	> 100	> 100	> 100	> 100	> 100	> 100 µM				
CC(=O)NNc1nc(C)c(C(/C=C/c2ccc(Cl)cc2)=N\NS(=O)(=O)c2ccc(C)cc2)s1				> 100 µM		> 100				> 100 µM						> 100 µM	> 100 µM	> 100 µM		
CCC(C(=O)[O-])C(=O)[O-].CCC(C(=O)[O-])C(=O)[O-].N.N.NCCCCCN.[Pt+4].[Pt+4]			> 100	> 100 µM	> 100	> 100			84.3	> 100 µM					47.8	> 100 µM	> 100 µM	> 100 µM	> 100	> 100
Cc1ccc(S(=O)(=O)CNC(=S)CCCC(=S)NCS(=O)(=O)c2ccc(C)cc2)cc1				> 100 µM		> 100				> 100 µM				> 100		> 100 µM	> 100 µM	> 100 µM		
O=c1cccc(C#Cc2ccccc2)o1	3.41	> 40.4	5.05	14.6 µM	2.38	7.02	7.74	> 68.6	2.77		6.89	24.9			12.6	> 44.9 µM	16.5 µM	22.7 µM	5.09	6.06
CC(=O)OCC1OC(OC2CC3C(C)(C)C(OC(C)=O)CC[C@]3(C)C3CCC45CC4(CC[C@H]5C(C)CC(O)C4OC4(C)C)[C@]23C)C(O)C(O)C1O (stereo partly specified)			1.56	3.82 µM and 3.15 µM		10.2			2.52	1.09 µM and 7.69 µM				8.58	2.05	1.84 µM and 3.79 µM	16.6 µM and 8.6 µM	9.79 µM and 12.7 µM	4.67	
CN(C)C(=O)CC(C(=O)O)c1c[nH]c2ccccc12 (stereo unspecified)				> 100 µM		> 100				> 100 µM				> 100		> 100 µM	> 100 µM	> 100 µM		
COc1cc2c3c(n(CCCN4CCN(C)CC4)c(=O)c2cc1OC)-c1cc2c(cc1C3=O)OCO2	15.8	36.4	12.8	29 µM			10.6	27.5		0.0353 µM	> 100	> 100			10.3	40.3 µM	42.3 µM	31.9 µM	24.8	17.1
CCOc1ccccc1NC(=O)CCc1nnc2s/c(=C\CCc3ccccc3)c(=O)n12				> 100 µM		> 100				> 100 µM				> 100		> 100 µM	> 100 µM	> 100 µM		
O=C(CC/C(C/C(=N/O)c1ccc(F)cc1)=N/O)N(Cc1ccccc1)Cc1ccccc1				> 100 µM		> 100				> 100 µM						> 100 µM	> 100 µM	> 100 µM		
NC(=O)N/N=C(\Cc1nc2ccc(C(=O)c3ccccc3)cc2[nH]c1=O)C(=O)Nc1ccc(Br)cc1				> 100 µM		> 100				> 100 µM				> 100			> 100 µM	> 100 µM		
Cc1ccc(-c2ccc(Nc3c4ccccc4nc4ccccc34)cc2)cn1		28.8		19.1 µM						3.59 µM		16		6.56		12.2 µM				
O=C(O)c1cc2ccccc2c(N=Nc2c([N+](=O)[O-])cc([N+](=O)[O-])cc2S(=O)(=O)O)c1O		> 100		> 100 µM						> 100 µM		> 100				> 100 µM	> 100 µM	> 100 µM		
Cc1ccc(S(=O)(=O)N2CCC3(C(/C=C/c4ccccc4)=Nc4ccccc43)C2c2ccccc2)cc1 (stereo unspecified)				> 100 µM		> 100								> 100		> 100 µM	> 100 µM	> 100 µM		
COC(=O)C1=C(C(=O)OC)C23C=CC=CC24C(C(=O)OC)=C(C(=O)OC)C4C1C3 (stereo unspecified)				> 100 µM						> 100 µM						> 100 µM	> 100 µM	> 100 µM		
CC1C=C(OC(=O)c2ccccc2)C(=O)C(n2cc(F)c(=O)n(C(=O)c3ccccc3)c2=O)O1 (stereo unspecified)										71.4 µM						62.1 µM	95.7 µM	> 100 µM		
CN(C)c1ccc(/C=C2\CNC/C(=C\c3ccc(N(C)C)cc3)C2=O)cc1						39.5				> 100 µM				82.8		> 100 µM	> 100 µM	> 100 µM		
NC(=O)c1csc(C2C=CC(CO)O2)n1 (stereo unspecified)				> 10 µM		> 100				> 100 µM						> 100 µM	> 100 µM	> 100 µM		
CC(=O)O[C@H]1[C@@H]2[C@@H]3[C@@H](C[C@H]1C)[C@@H](C)CO[C@@]1(C)CC/C=C(/C)C[C@@H]2O[C@@H]31				> 100 µM		> 100				> 100 µM				> 100		> 100 µM	> 100 µM	> 100 µM		
Cc1cc(Cc2cc(C)c(NC(=O)C(=O)C3C(=O)NC(=S)NC3=O)c(C(C)C)c2)cc(C(C)C)c1NC(=O)C(=O)C1C(=O)NC(=S)NC1=O				> 100 µM		> 100				> 100 µM				> 100		> 100 µM	> 100 µM	> 100 µM		
Cc1ccc(NC(=O)CC(=O)n2nc(-c3ccccc3)c(N=Nc3ccc(Cl)cc3)c2-c2ccccc2)cc1				> 100 µM		> 100				> 100 µM						> 100 µM	> 100 µM	72 µM		
CC12O[C@H](c3ccccc3)[C@H](c3ccccc3)N1C(=O)C1(C(=O)OCc3ccccc3)CC12 (stereo partly specified)				> 100 µM		> 100				63.2 µM						> 100 µM	> 100 µM			
NC1=NC(c2ccccc2)N=C(Nc2ccccc2)N1 (stereo unspecified)	> 100	> 100	31.6	> 100 µM	11.4	> 100	> 100	> 100	> 100	> 100 µM	34.5	> 100			97.9	> 100 µM		> 100 µM		> 100

— PubChem BioAssay (NCI)
